In patent US12194177B2, “Systems and methods for delivering chlorine dioxide using a liquid curtain” (Sabre IP Acquistionco, LLC, priority 2019, dated 2025):

Assays:
[1] = Chlorine dioxide retention in liquid treatment solution, curtain application method; type: physicochemical; settings: for Average ClO2 loss in ppm (±STDEV): location A minus location D; for Average ClO2 concentration in ppm (±STDEV): curtain, ambient 65-70 °F
Source text: (§1) In this example, two methods for applying a liquid chlorine dioxide treatment solution were compared with a chlorine dioxide treatment solution having the same volume and initial chlorine dioxide concentration, and using a system with the same delivery rate. One method was a curtain delivery method and the other method was a low-pressure spray method.
(§2) For both the methods a 330-gallon tote was used as the source fluid reservoir. The tote was filled with about 75 gallons of fresh water and also contained submersible sump-pump that provided the fluid flow to the system. A 6.6 gallon per minute (GPM) rotameter was in line between the pump and the chlorine dioxide delivery system that delivered a concentrated solution of chlorine dioxide (˜1700 ppm) so as to make a liquid chlorine dioxide treatment solution containing an initial concentration (approximately 5 ppm) of chlorine dioxide. The delivery system sat over an aluminum sheet on a slight gradient, to provide a homogenous flow pathway of the treatment solution. The aluminum sheet allowed the treatment fluid to cascade back into the tote for recirculation. During experimentation, the rotameter was set to allow for approximately 4 GPM ([…]) of constant flow, achieved by slight pinching of a ball valve in line and downstream of the rotameter. The treatment solution was circulated through the system for a few minutes and if needed, additional concentrated solution was added to achieve the initial concentration (approximately 5 ppm chlorine dioxide) in the treatment solution before experimental runs commenced.
For the curtain application, a rain gutter was modified to serve as a trough for the fluid to fill into. The front wall of the trough was modified; it was slightly shorter and was rounded to achieve laminar or predominantly laminar flow of the fluid over the wall of the trough and down over the target belt (belt to be used for moving eggs or other products to be treated with the treatment solution). The trough also contained pieces of plastics filter media (a type of baffle) that converted the turbulent flow of the trough being filled to more homogenous, laminar flow allowing a sheer curtain or waterfall effect to be achieved consistently across the entire length of the trough, such that the curtain fell onto the target belt. […] The curtain was about 11″ in height and approximately 2-2.5 feet wide.
(§3) Each application method was tested in multiple runs in which the liquid chlorine dioxide treatment solution was maintained at a particular target temperature (approximately 120° F. (this is the high temperature curtain or spray as referred to in Table 3) or a temperature of 60-75° F. (this is the low temperature curtain or spray as referred to in Table 3)).
(§4) For the curtain application method, the fluid was sampled at four locations: (A) from the hose that delivered treatment solution into the trough, (B) where the fluid entered the trough (C) within the trough near the exit where fluid flowed out of the trough to form the curtain, (D) where the fluid of the curtain fell onto the belt. For the spray application, the fluid was sampled at three locations: (A) from the hose that delivered treatment solution into the sprayer nozzle, (B) from the fluid as it exited the sprayer nozzle, (C) where the fluid of the spray fell onto the belt.
(§5) Chlorine dioxide concentrations were determined using the Palintest ChlordioX Plus device in accordance with the manufacturer's instructions.

[2] = Chlorine dioxide retention in liquid treatment solution, low-pressure spray application method; type: physicochemical; settings: for Average ClO2 loss in ppm (±STDEV): location A minus location C; for Average ClO2 concentration in ppm (±STDEV): spray, ambient 65-70 °F
Source text: as §1, §2
For the spray application, a series of nozzles were used to apply the treatment solution.
as §3, §4, §5

[O][Cl+][O-] [ClO2, chlorine dioxide]
Average ClO2 loss in ppm (±STDEV) ([1]; Curtain with high temperature (approximately 120 °F)): 1.95 ± 0.58 ppm
Average ClO2 loss in ppm (±STDEV) ([1]; Curtain with low temperature (60-75 °F)): 1.37 ± 0.27 ppm
Average ClO2 concentration in ppm (±STDEV) ([1]; treatment fluid 65-75 °F, location A (hose delivering treatment solution into trough)): 4.88 ± 0.87 ppm
Average ClO2 concentration in ppm (±STDEV) ([1]; treatment fluid 65-75 °F, location B (where fluid entered the trough)): 4.91 ± 0.83 ppm
Average ClO2 concentration in ppm (±STDEV) ([1]; treatment fluid 65-75 °F, location C (within trough near the exit)): 4.39 ± 0.79 ppm
Average ClO2 concentration in ppm (±STDEV) ([1]; treatment fluid 65-75 °F, location D (where curtain fell onto the belt)): 3.51 ± 0.68 ppm
Average ClO2 concentration in ppm (±STDEV) ([1]; treatment fluid 110-120 °F, location A (hose delivering treatment solution into trough)): 5.28 ± 0.59 ppm
Average ClO2 concentration in ppm (±STDEV) ([1]; treatment fluid 110-120 °F, location B (where fluid entered the trough)): 4.70 ± 0.28 ppm
Average ClO2 concentration in ppm (±STDEV) ([1]; treatment fluid 110-120 °F, location C (within trough near the exit)): 4.51 ± 0.52 ppm
Average ClO2 concentration in ppm (±STDEV) ([1]; treatment fluid 110-120 °F, location D (where curtain fell onto the belt)): 3.34 ± 0.58 ppm
Average ClO2 loss in ppm (±STDEV) ([2]; Spray with high temperature (approximately 120 °F)): 3.24 ± 0.67 ppm
Average ClO2 loss in ppm (±STDEV) ([2]; Spray with low temperature (60-75 °F)): 1.44 ± 0.38 ppm
Average ClO2 concentration in ppm (±STDEV) ([2]; treatment fluid 60-70 °F, location A (hose delivering treatment solution into sprayer nozzle)): 4.86 ± 0.54 ppm
Average ClO2 concentration in ppm (±STDEV) ([2]; treatment fluid 60-70 °F, location B (fluid as it exited the sprayer nozzle)): 4.34 ± 0.71 ppm
Average ClO2 concentration in ppm (±STDEV) ([2]; treatment fluid 60-70 °F, location C (where spray fell onto the belt)): 3.43 ± 0.61 ppm
Average ClO2 concentration in ppm (±STDEV) ([2]; treatment fluid 110-120 °F, location A (hose delivering treatment solution into sprayer nozzle)): 5.28 ± 0.58 ppm
Average ClO2 concentration in ppm (±STDEV) ([2]; treatment fluid 110-120 °F, location B (fluid as it exited the sprayer nozzle)): 3.57 ± 0.53 ppm
Average ClO2 concentration in ppm (±STDEV) ([2]; treatment fluid 110-120 °F, location C (where spray fell onto the belt)): 2.04 ± 0.45 ppm
